Results published in patent US20200071316A1, “ACTIVATORS OF THE RETINOIC ACID INDUCIBLE GENE "RIG-I" PATHWAY AND METHODS OF USE THEREOF” (Kineta Immuno-Oncology LLC, priority 2018, published 2020).
Marks after values point to notes of the source that are not given here.

How the values were obtained:
[1] = system: IRF3 signaling pathway (IRF-inducible ISG54 promotor) in THP1-Lucia ISG cells; experiment: THP1-Lucia ISG reporter assay: induction of IRF3-dependent luciferase activity; format: cell-based; conditions: Homo sapiens, PMA-differentiated cells, 18 h after stimulation, read-out: THP1 ISG: fold increase of IRF3-dependent luciferase activity over background; for fold induction at 10 µM: 10 μM compound; for fold induction at 20 µM: 20 μM compound (*)
Method: The compounds were evaluated in the THP1-Lucia™ ISG (interferon stimulated genes) reporter assay to determine if the compounds activate the IRF3 signaling pathway. The THP1-Lucia™ cells (InvivoGen) express the secreted luciferase (Lucia) reporter gene under the control of an IRF-inducible promotor. The reporter cell line was developed from human monocytic leukemia THP-1 cells.
(§1) The promotor was comprised of five IFN-stimulated response elements (ISRE) fused to an ISG54 minimal promotor which is unresponsive to NF-kB or AP-1 pathways. […] The IRF3-deficient THP1-Lucia™ ISG IRF3 −/− reporter cell line was generated by CRISPR technology from the parent THP1-Lucia™ ISG reporter cell line.
(§2) 5 THP1-Lucia™ ISG cells and IRF3-deficient THP1-Lucia™ ISG IRF3 −/− cells were differentiated with PMA (100 ng/ml) and stimulated with compounds at the indicated concentrations (5 to 20 μM), positive control, or not treated (background). Luciferase secretion was quantified using the QUANTI-Luc luciferase assay system (InvivoGen) 18 h after stimulation. Data are shown as fold increase luciferase activity over background in Table 7 and represent the IRF3-dependent ISG54 promotor activity by the THP1-Lucia™ ISG cells in response to compounds. […] The fold increase of compounds (10 μM, *20 μM, **5 μM) induced IRF3 dependent luciferase activity is indicated as follows: “−” indicates less than 2.4 fold increase; “+” indicates a 2.4-4.9 fold increase; “++” indicates a 5-9.9 fold increase; “+++” indicates a 10-19 fold increase; “++++” indicates a 20-39 fold increase; “+++++” indicates greater than or equal to 40 fold increase.

[2] = system: THP1-Lucia ISG IRF3 −/− cells; experiment: IRF3-deficient THP1-Lucia ISG IRF3 −/− reporter assay (counter-screen); format: cell-based; conditions: Homo sapiens, 18 h after stimulation, read-out: THP1 ISG IRF3 −/−: fold increase of luciferase activity over background; for fold induction at 10 µM: 10 μM compound; for fold induction at 20 µM: 20 μM compound (*)
Method: as §1, §2

[3] = system: RIG-I deficient CT26 RIG-1−/− cells; experiment: CXCL10 secretion in RIG-I deficient CT26 RIG-1−/− cells (ELISA); format: cell-based, murine; conditions: 24 h
Method: (§3) The CT26 murine colon carcinoma cell line (ATCC) was used to evaluate the induction of CXCL10 secretion. CXCL10 is an important chemokine in tumor immune biology that recruits tumor-specific T cells to the tumor. To confirm that compound-mediated CXCL10 production was RIG-I specific, RIG-I deficient CT2-RIG-1−/− cells were generated by Kineta using CRISPR technology.
(§4) CT26 cells were seeded at a density of 1×10^4 cells per well on a 96-well tissue culture plate in 100 μL of cell culture and cells were incubated at 37° C. and 5% CO2 for 24 hr. Next, CT26 cells were treated with compounds at the indicated concentrations. CXCL10 was quantified by ELISA from supernatants taken 24 h after compound stimulation by use of the CXCL10 DuoSet ELISA kit (Cat # DY466, R&D, Minneapolis, Minn., USA) according to the manufacturer's instructions.
(§5) CXCL10 secretion by CT26 cells in response to compounds (in an amount of 5 to 20 μM) of the present disclosure is shown in Table 8. The compound-induced CXCL10 production was RIG-I dependent, since none of the compounds mediated CXCL10 secretion in RIG-I deficient CT26 RIG-1−/− cells. The compounds (10 μM, *20 μM, **5 μM) are indicated in the table as follows: “−” indicates less than 100 pg/mL; “+” indicates 100-199 pg/mL; “++” indicates 200-399 pg/mL; “+++” indicates 400-799 pg/mL; “++++” indicates 800 to 1599 pg/mL; “+++++” indicates greater than or equal to 1600 pg/ml.

[4] = system: CXCL10 secretion by CT26 cells; experiment: RIG-I dependent CXCL10 secretion by CT26 colon carcinoma cells (ELISA); format: cell-based, murine; conditions: 24 h
Method: as §3, §4, §5

Row | Compound | fold induction at 10 µM [1] | fold induction at 10 µM [2] | CXCL10 secretion by CT26 RIG-I −/− cells ([3]; 10 μM compound) | CXCL10 secretion by CT26 cells ([4]; 10 μM compound) | fold induction at 20 µM [1] | fold induction at 20 µM [2] | CXCL10 secretion by CT26 RIG-I −/− cells ([3]; 5 μM compound (**)) | CXCL10 secretion by CT26 cells ([4]; 5 μM compound (**))
1 | CN(C)S(=O)(=O)c1ccc2nc(NC(=O)c3cc4ccccc4cc3OCCN3CCOCC3)sc2c1 [Example 30, N-[6-(dimethylsulfamoyl)-1,3-benzothiazol-2-yl]-3-[2-(morpholin-4-yl)ethoxy]naphthalene-2-carboxamide] | 10 to 19 | < 2.4 | − (“−” indicates less than 100 pg/mL) | +++ (“+++” indicates 400-799 pg/mL) |  |  |  | 
2 | O=C(Nc1nc2ccc(S(=O)(=O)N3CCC3)cc2s1)c1ccc(-c2ccccc2)cc1OCCCCN1CCOCC1 [Example 59] | 10 to 19 | < 2.4 | − (“−” indicates less than 100 pg/mL) | +++ (“+++” indicates 400-799 pg/mL) |  |  |  | 
3 | COCC1CN(CCOc2cc3ccccc3cc2C(=O)Nc2nc3ccc(S(=O)(=O)N4CCCC4)cc3s2)CCO1 (stereo not drawn) [Example 87, 3-{2-[2-(methoxymethyl)morpholin-4-yl]ethoxy}-N-[6-(pyrrolidine-1-sulfonyl)-1,3-benzothiazol-2-yl]naphthalene-2-carboxamide] | 20 to 39 | < 2.4 |  |  |  |  |  | 
4 | O=C(Nc1nc2ccc(S(=O)(=O)N3CCC3)cc2s1)c1cc2ccsc2cc1OCCCCN1CCOCC1 [Example 63, N-[6-(azetidine-1-sulfonyl)-1,3-benzothiazol-2-yl]-6-[4-(morpholin-4-yl)butoxy]-1-benzothiophene-5-carboxamide] | 2.4 to 4.9 | < 2.4 | − (“−” indicates less than 100 pg/mL) | + (“+” indicates 100-199 pg/mL) |  |  |  | 
5 | O=C(Nc1nc2ccc(SC(F)F)cc2s1)c1cc2ccccc2cc1OCCN1CCOCC1 [Example 48, N-{6-[(difluoromethyl)sulfanyl]-1,3-benzothiazol-2-yl}-3-[2-(morpholin-4-yl)ethoxy]naphthalene-2-carboxamide] |  |  | − (“−” indicates less than 100 pg/mL) | ++ (“++” indicates 200-399 pg/mL) | 2.4 to 4.9 | < 2.4 |  | 
6 | O=C(Nc1nc2ccc(S(=O)(=O)N3CCCCC3)cc2s1)c1cc2ccccc2cc1OCCN1CCOCC1 [Example 37, 3-[2-(morpholin-4-yl)ethoxy]-N-[6-(piperidine-1-sulfonyl)-1,3-benzothiazol-2-yl]naphthalene-2-carboxamide] | 10 to 19 | < 2.4 | − (“−” indicates less than 100 pg/mL) | +++ (“+++” indicates 400-799 pg/mL) |  |  |  | 
7 | N#Cc1ccc2nc(NC(=O)c3cc4ccccc4cc3OCCN3CCOCC3)sc2c1 [Example 24, N-(6-cyano-1,3-benzothiazol-2-yl)-3-[2-(morpholin-4-yl)ethoxy]naphthalene-2-carboxamide] | 5 to 9.9 | < 2.4 | − (“−” indicates less than 100 pg/mL) | − (“−” indicates less than 100 pg/mL) |  |  |  | 
8 | O=C(Nc1nc2ccc(S(=O)(=O)N3CCC3)cc2s1)c1cc2c(cc1OCCN1CCOCC1)OCO2 [Example 61, N-[6-(azetidine-1-sulfonyl)-1,3-benzothiazol-2-yl]-6-[2-(morpholin-4-yl)ethoxy]-2H-1,3-bezodioxole-5-carboxamide] | 5 to 9.9 | < 2.4 | − (“−” indicates less than 100 pg/mL) | ++ (“++” indicates 200-399 pg/mL) |  |  |  | 
9 | CS(=O)(=O)Nc1ccc2nc(NC(=O)c3cc4ccccc4cc3OCCN3CCOCC3)sc2c1 [Example 28, N-(6-methanesulfonamido-1,3-benzothiazol-2-yl)-3-[2-(morpholin-4-yl)ethoxy]naphthalene-2-carboxamide] | 2.4 to 4.9 | < 2.4 | − (“−” indicates less than 100 pg/mL) | + (“+” indicates 100-199 pg/mL) |  |  |  | 
10 | O=C(Nc1nc2ccc(S(=O)(=O)N3CCCC3)cc2s1)c1cc2ccccc2cc1OCCN1CC2CCC1CO2 (stereo not drawn) [Example 88, 3-(2-{2-oxa-5-azabicyclo[2.2.2]octan-5-yl}ethoxy)-N-[6-(pyrrolidine-1-sulfonyl)-1,3-benzothiazol-2-yl]naphthalene-2-carboxamide] | 20 to 39 | < 2.4 |  |  |  |  |  | 
11 | O=C(Nc1nc2ccc(S(=O)(=O)N3CCOCC3)cc2s1)c1cc2ccccc2cc1OCCN1CCOCC1 [Example 16, 3-[2-(morpholin-4-yl)ethoxy]-N-[6-(morpholine-4-sulfonyl)-1,3-benzothiazol-2-yl]naphthalene-2-carboxamide] | 20 to 39 | < 2.4 | − (“−” indicates less than 100 pg/mL) | ++++ (“++++” indicates 800 to 1599 pg/mL) |  |  |  | 
12 | O=C(Nc1nc2ccc(S(=O)(=O)N3CCCC3)cc2s1)c1cc2c(cc1OCCN1CCOCC1)OCO2 [Example 40, 6-[2-(morpholin-4-yl)ethoxy]-N-[6-(pyrrolidine-1-sulfonyl)-1,3-benzothiazol-2-yl]-2H-1,3-benzodioxole-5-carboxamide] |  |  |  |  | 2.4 to 4.9 | < 2.4 | −** (“−” indicates less than 100 pg/mL) | ++** (“++” indicates 200-399 pg/mL)
13 | O=C(Nc1cc2ccc(S(=O)(=O)N3CCC3)cc2s1)c1cc2ccccc2cc1OCCCCN1CCOCC1 [Example 86, N-(6-(azetidin-1-ylsulfonyl)benzo[b]thiophen-2-yl)-3-(4-morpholinobutoxy)-2-naphthamide] | 20 to 39 | < 2.4 |  |  |  |  |  | 
14 | O=C(Nc1nc2ccc(S(=O)(=O)N3CCCC3)cc2s1)c1cc2ccccc2cc1OCCN1C[C@H]2C[C@@H]1CO2 [Example 90] | 20 to 39 | < 2.4 |  |  |  |  |  | 
15 | O=C(Nc1nc2ccc(S(=O)(=O)N3CCCC3)cc2s1)c1cc2c(cc1OCCN1CCOCC1)CCC2 [Example 91, 6-[2-(morpholin-4-yl)ethoxy]-N-[6-(pyrrolidine-1-sulfonyl)-1,3-benzothiazol-2-yl]-2,3-dihydro-1H-indene-5-carboxamide] | 10 to 19 | < 2.4 |  |  |  |  |  | 
16 | O=C(Nc1nc2ccc(S(=O)(=O)N3CCCC3)cc2s1)c1cc2ccccc2cc1OCCN1CCC(F)(F)CC1 [Example 79, 3-[2-(4,4-difluoropiperidin-1-yl)ethoxy]-N-[6-(pyrrolidine-1-sulfonyl)-1,3-benzothiazol-2-yl]naphthalene-2-carboxamide] |  |  |  |  |  |  | −** (“−” indicates less than 100 pg/mL) | +** (“+” indicates 100-199 pg/mL)
17 | O=C(Nc1nc2ccc(S(=O)(=O)N3CCCC3)cc2s1)c1cc2ccccc2cc1OCCN1CC2CC(C1)O2 [Example 89, 3-(2-{6-oxa-3-azabicyclo[3.1.1]heptan-3-yl}ethoxy)-N-[6-(pyrrolidine-1-sulfonyl)-1,3-benzothiazol-2-yl]naphthalene-2-carboxamide] | 10 to 19 | < 2.4 |  |  |  |  |  | 
